Data taken from patent US20170022171A1, “2,5-DISUBSTITUTED CYCLOPENTANECARBOXYLIC ACIDS AND THEIR USE” (Bayer Pharma Aktiengesellschaft, priority 2014, published 2017).

Legend:
Type in all cases: biochemical
[1] = biological target: T1, MMP-3 (Homo sapiens, UniProt P08254); experiment: In vitro MMP-3 inhibition test
T1 construct: purchased R&D Systems 513-MP
Excerpt: (§1) The MMP-mediated amidolytic cleavage of a suitable peptide substrate leads to an increase in fluorescent light here too. The signal intensity of the fluorescent light is directly proportional to the enzyme activity. The active concentration of a test compound at which half the enzyme is inhibited (50% signal intensity of the fluorescent light) is reported as the IC50 value.
(§2) Recombinant MMP-3 (from R&D Systems, 513-MP) is chemically activated in accordance with the manufacturer's instructions using APMA. 1 μl of the test compound to be analysed (as a solution in DMSO, suitable concentrations, for example, 1 nM to 30 μM) is pipetted into 24 μl of activated enzyme (final concentration, for example, 2 nM) in reaction buffer (50 mM Tris/HCl pH 7.5, 10 mM CaCl2, 150 mM NaCl, 0.05% Brij®-35) in a white 384-hole microtiter plate (MTP). The enzymatic reaction is started by adding the intramolecularly quenched Mca-Arg-Pro-Lys-Pro-Val-Glu-Nval-Trp-Arg-Lys(Dnp)-NH2 substrate (final concentration, for example, 10 μM; R&D Systems, ES-002), so as to result in a total test volume of 50 The course of the MMP-3 reaction is measured by measuring the fluorescence intensity (excitation 320 nm, emission 410 nm) over a suitable period of time (for example over 120 min at a temperature of 32° C.).

[2] = biological target: T2, MMP-13 (Homo sapiens, UniProt P45452); experiment: In vitro MMP-13 inhibition test
T2 construct: purchased R&D Systems 511-MP
Excerpt: as §1
as §2, with “Recombinant MMP-13” for “Recombinant MMP-3”, “Systems, 511-MP)” for “Systems, 513-MP)”, “example, 0.1” for “example, 2”, “quenched Mca-Pro-Leu-Gly-Leu-Dpa(Dnp)-Ala-Arg-NH2” for “quenched Mca-Arg-Pro-Lys-Pro-Val-Glu-Nval-Trp-Arg-Lys(Dnp)-NH2”, “Systems, ES-001),” for “Systems, ES-002),”, “the MMP-13” for “the MMP-3”

[3] = biological target: T3, human macrophage elastase (HME/hMMP-12) (Homo sapiens, UniProt P39900); experiment: In vitro HME inhibition test (standard or high-sensitivity); conditions: in some cases mean values
T3 construct: 0.5 nM HME; purchased R&D Systems 917-MP
T3 sequence (P39900 106-470): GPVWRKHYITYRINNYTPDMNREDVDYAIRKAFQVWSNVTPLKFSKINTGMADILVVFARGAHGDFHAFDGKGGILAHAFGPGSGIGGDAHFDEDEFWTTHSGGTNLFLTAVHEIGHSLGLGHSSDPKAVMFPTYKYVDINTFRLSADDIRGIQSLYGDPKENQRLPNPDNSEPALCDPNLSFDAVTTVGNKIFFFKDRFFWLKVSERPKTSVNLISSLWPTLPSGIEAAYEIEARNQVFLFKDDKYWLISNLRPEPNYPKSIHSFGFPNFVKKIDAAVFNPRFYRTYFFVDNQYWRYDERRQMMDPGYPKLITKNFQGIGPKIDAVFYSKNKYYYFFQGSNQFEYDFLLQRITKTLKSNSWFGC
In short: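 Fluorogenic assay: 0.5 nM autoactivated HME with 5 µM Mca-Pro-Leu-Gly-Leu-Glu-Glu-Ala-Dap(Dnp)-NH2 in HEPES pH 7.4 buffer (NaCl, CaCl2, ZnCl2, EDTA, Brij), 2 h at 37 °C; ex 323/em 393 nm. IC50 from fluorescence versus concentration. High-sensitivity format: ~0.05 nM enzyme, ~16 h incubation.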

[4] = biological target: T4, MMP-10 (Homo sapiens, UniProt P09238); experiment: In vitro MMP-10 inhibition test
T4 construct: purchased R&D Systems 910-MP
T4 sequence (P09238 99-476): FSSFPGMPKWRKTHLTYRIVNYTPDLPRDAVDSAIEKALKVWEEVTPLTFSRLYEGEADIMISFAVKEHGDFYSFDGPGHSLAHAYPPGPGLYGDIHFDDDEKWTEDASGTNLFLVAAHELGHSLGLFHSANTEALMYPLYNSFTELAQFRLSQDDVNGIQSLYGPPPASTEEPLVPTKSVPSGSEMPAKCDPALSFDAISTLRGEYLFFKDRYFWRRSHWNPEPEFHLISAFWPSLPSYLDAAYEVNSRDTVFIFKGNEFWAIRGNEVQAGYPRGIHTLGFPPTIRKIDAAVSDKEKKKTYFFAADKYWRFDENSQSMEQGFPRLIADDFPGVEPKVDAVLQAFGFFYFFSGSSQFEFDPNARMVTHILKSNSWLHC
Excerpt: as §1
Recombinant MMP-10 (from R&D Systems, 910-MP) is chemically activated in accordance with the manufacturer's instructions using APMA. 1 μl of the test compound to be analysed (as a solution in DMSO, suitable concentrations, for example, 1 nM to 30 μM) is pipetted into 24 μl of activated enzyme (final concentration, for example, 2 nM) in reaction buffer (50 mM Tris/HCl pH 7.5, 10 mM CaCl2, 150 mM NaCl, 0.05% Brij®-35) in a white 384-hole microtiter plate (MTP). The enzymatic reaction is started by adding the intramolecularly quenched Mca-Arg-Pro-Lys-Pro-Val-Glu-Nval-Trp-Arg-Lys(Dnp)-NH2 substrate (final concentration, for example, 10 μM; R&D Systems, ES-002), so as to result in a total test volume of 50 μl. The course of the MMP-10 reaction is measured by measuring the fluorescence intensity (excitation 320 nm, emission 410 nm) over a suitable period of time (for example over 120 min at a temperature of 32° C.).

T1 sequence (P08254 100-477): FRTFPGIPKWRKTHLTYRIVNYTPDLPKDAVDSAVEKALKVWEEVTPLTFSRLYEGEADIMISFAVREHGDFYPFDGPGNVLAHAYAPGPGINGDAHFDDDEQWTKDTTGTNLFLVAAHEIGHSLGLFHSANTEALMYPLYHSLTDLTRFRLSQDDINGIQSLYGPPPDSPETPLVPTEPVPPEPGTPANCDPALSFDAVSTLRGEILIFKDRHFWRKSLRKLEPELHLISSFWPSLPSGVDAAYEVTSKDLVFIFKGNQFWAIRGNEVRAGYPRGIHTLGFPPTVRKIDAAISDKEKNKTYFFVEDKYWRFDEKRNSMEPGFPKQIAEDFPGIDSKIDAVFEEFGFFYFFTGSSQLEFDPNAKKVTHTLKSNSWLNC

Structure (SMILES)	IC50 [1]	IC50 [2]	IC50 [3]	IC50 [4]
O=C(O)[C@@H]1[C@@H](Cn2nnc3ccc(C(F)(F)F)cc3c2=O)CC[C@H]1C(=O)c1ccc(OCCC2CCCCC2)cc1 (single isomer, unassigned) [Example 52, (+)-(1RS,2RS,5SR)-2-[4-(2-Cyclohexylethoxy)benzoyl]-5-{[4-oxo-6-(trifluoromethyl)-1,2,3-benzotriazin-3(4H)-yl]methyl}cyclopentanecarboxylic acid]	380 nM	1600 nM	0.017 nM	52 nM
O=C(O)[C@@H]1[C@@H](Cn2nnc3ccc(C(F)(F)F)cc3c2=O)CC[C@H]1C(=O)c1ccc(OCCC2CCCC2)cc1 (single isomer, unassigned) [Example 55, (+)-(1RS,2RS,5SR)-2-[4-(2-Cyclopentylethoxy)benzoyl]-5-{[4-oxo-6-(trifluoromethyl)-1,2,3-benzotriazin-3(4H)-yl]methyl}cyclopentanecarboxylic acid]	440 nM	1700 nM	0.037 nM	50 nM
CCCCCCOc1ccc(C(=O)[C@@H]2CC[C@H](Cn3nnc4ccc(C(F)(F)F)cc4c3=O)[C@H]2C(=O)O)cc1 (single isomer, unassigned) [Example 58, (+)-(1RS,2RS,5SR)-2-[4-(Hexyloxy)benzoyl]-5-{[4-oxo-6-(trifluoromethyl)-1,2,3-benzotriazin-3(4H)-yl]methyl}cyclopentanecarboxylic acid]	300 nM	440 nM	0.027 nM	29 nM
CCCCOc1ccc(C(=O)[C@@H]2CC[C@H](Cn3nnc4ccc(C(F)(F)F)cc4c3=O)[C@H]2C(=O)O)cc1 (single isomer, unassigned) [Example 67, (+)-(1RS,2RS,5SR)-2-(4-Butoxybenzoyl)-5-{[4-oxo-6-(trifluoromethyl)-1,2,3-benzotriazin-3(4H)-yl]methyl}cyclopentanecarboxylic acid]	140 nM	270 nM	0.015 nM	14 nM
O=C(O)[C@@H]1[C@@H](Cn2nnc3ccc(C(F)(F)F)cc3c2=O)CC[C@H]1C(=O)c1ccc(SCc2ccccc2)cc1 (single isomer, unassigned) [Example 75, (+)-(1RS,2RS,5SR)-2-[4-(Benzylsulphanyl)benzoyl]-5-{[4-oxo-6-(trifluoromethyl)-1,2,3-benzotriazin-3(4H)-yl]methyl}cyclopentanecarboxylic acid]	170 nM	2300 nM	0.051 nM	57 nM
O=C(O)[C@@H]1[C@@H](Cn2nnc3ccc(C(F)(F)F)cc3c2=O)CC[C@H]1C(=O)c1ccc(SCc2cccc(Cl)c2)cc1 (single isomer, unassigned) [Example 77, (+)-(1RS,2RS,5SR)-2-{4-[(3-Chlorobenzyl)sulphanyl]benzoyl}-5-{[4-oxo-6-(trifluoromethyl)-1,2,3-benzotriazin-3(4H)-yl]methyl}cyclopentanecarboxylic acid]	100 nM	770 nM	0.04 nM	30 nM
O=C(O)[C@@H]1[C@@H](Cn2nnc3ccc(C(F)(F)F)cc3c2=O)CC[C@H]1C(=O)c1ccc(SCc2ccc(Cl)c(Cl)c2)cc1 (single isomer, unassigned) [Example 80, (+)-(1RS,2RS,5SR)-2-{4-[(3,4-Dichlorobenzyl)sulphanyl]benzoyl}-5-{[4-oxo-6-(trifluoromethyl)-1,2,3-benzotriazin-3(4H)-yl]methyl}cyclopentanecarboxylic acid]	150 nM	840 nM	0.079 nM	53 nM
Cc1ccc2nnn(C[C@H]3CC[C@@H](C(=O)c4ccc(OCc5ccccc5)cc4)[C@@H]3C(=O)O)c(=O)c2c1 (single isomer, unassigned) [Example 92, (+)-(1RS,2RS,5SR)-2-[4-(Benzyloxy)benzoyl]-5-[(6-methyl-4-oxo-1,2,3-benzotriazin-3(4H)-yl)methyl]cyclopentanecarboxylic acid]	150 nM	27 nM	0.048 nM	15 nM
Cc1ccc2nnn(C[C@H]3CC[C@@H](C(=O)c4ccc(OCC5CCCCC5)cc4)[C@@H]3C(=O)O)c(=O)c2c1 (single isomer, unassigned) [Example 117, (+)-(1RS,2RS,5SR)-2-[4-(Cyclohexylmethoxy)benzoyl]-5-[(6-methyl-4-oxo-1,2,3-benzotriazin-3(4H)-yl)methyl]cyclopentanecarboxylic acid]	110 nM	74 nM	0.014 nM	26 nM

The remaining lines, values ahead:

IC50 [1]	IC50 [2]	IC50 [3]	IC50 [4]	Structure (SMILES)
680 nM	410 nM	0.1 nM	55 nM	Cc1cccc(COc2ccc(C(=O)[C@@H]3CC[C@H](Cn4nnc5ccc(C)cc5c4=O)[C@H]3C(=O)O)cc2)c1 (single isomer, unassigned) [Example 98, (+)-(1RS,2RS,5SR)-2-{4-[(3-Methylbenzyl)oxy]benzoyl}-5-[(6-methyl-4-oxo-1,2,3-benzotriazin-3(4H)-yl)methyl]cyclopentanecarboxylic acid]
880 nM	210 nM	0.086 nM	110 nM	Cc1ccc2nnn(C[C@H]3CC[C@@H](C(=O)c4ccc(OCc5cccc(C(F)(F)F)c5)cc4)[C@@H]3C(=O)O)c(=O)c2c1 (single isomer, unassigned) [Example 101, (+)-(1RS,2SR,5RS)-2-[(6-Methyl-4-oxo-1,2,3-benzotriazin-3(4H)-yl)methyl]-5-(4-{[3-(trifluoromethyl)benzyl]oxy}benzoyl)cyclopentanecarboxylic acid]
260 nM	200 nM	0.12 nM	50 nM	Cc1ccc2nnn(C[C@H]3CC[C@@H](C(=O)c4ccc(OCc5cccc(Cl)c5)cc4)[C@@H]3C(=O)O)c(=O)c2c1 (single isomer, unassigned) [Example 104, (+)-(1RS,2RS,5SR)-2-{4-[(3-Chlorobenzyl)oxy]benzoyl}-5-[(6-methyl-4-oxo-1,2,3-benzotriazin-3(4H)-yl)methyl]cyclopentanecarboxylic acid]
730 nM	150 nM	0.035 nM	52 nM	COc1cccc(COc2ccc(C(=O)[C@@H]3CC[C@H](Cn4nnc5ccc(C)cc5c4=O)[C@H]3C(=O)O)cc2)c1 (single isomer, unassigned) [Example 107, (+)-(1RS,2RS,5SR)-2-{4-[(3-Methoxybenzyl)oxy]benzoyl}-5-[(6-methyl-4-oxo-1,2,3-benzotriazin-3(4H)-yl)methyl]cyclopentanecarboxylic acid]
920 nM	260 nM	0.087 nM	130 nM	Cc1ccc2nnn(C[C@H]3CC[C@@H](C(=O)c4ccc(OCc5cccc(OC(F)(F)F)c5)cc4)[C@@H]3C(=O)O)c(=O)c2c1 (single isomer, unassigned) [Example 110, (+)-(1RS,2SR,5RS)-2-[(6-Methyl-4-oxo-1,2,3-benzotriazin-3(4H)-yl)methyl]-5-(4-{[3-(trifluoromethoxy)benzyl]oxy}benzoyl)cyclopentanecarboxylic acid]
